Measured values published in patent publication US12653899B2, “Multi-targeted, tunable, sustained delivery of payloads to charged avascular tissues” (Massachusetts Institute of Technology, priority 2019, dated 2026).

Assays:
[1] = system: human ankle cartilage explants treated with IL-1β; assay: Cumulative sGAG loss and final sGAG content (DMMB) in IL-1β challenge, human ankle cartilage; type: cell-based; conditions: 100 pg/ml IL-1β; for cumulative sGAG loss compared to the untreated control: 10-day time point
Experimental: Preliminary dose response experiments were performed to test the effects of human IL-1β (PeproTech, Rocky Hill, NJ) on human ankle cartilage. Ankle cartilage explants from two different donors (equilibrated in culture medium post-harvest) were cultured in serum-free low glucose medium (same composition as equilibration medium) and treated with continuous IL-1β doses ranging from 10 pg/ml to 1 ng/ml for 8 days. The experiments also included groups of explants that were treated with 300 ng/ml free IGF-1 at each dose level of IL-1β. Based on the results of these experiments, 100 pg/ml IL-1β was chosen as the dose used for the fusion protein dose response experiments. In these experiments, ankle and knee cartilage explants (equilibrated in culture medium post-harvest) were treated continuously with IL-1β and received single doses of fusion proteins (ranging from 39.2 nM to 2 μM) at the start of the experiments. Media changes with IL-1β but without fusion proteins were performed once every 2 to 3 days. An untreated control group, a control with continuous IL-1β alone, and a control with IL-1β combined with continuous free IGF-1 (300 ng/ml or 39.2 nM) were included. Experiments were terminated at 7-day and 10-day timepoints, and the sGAG biosynthesis rate, metabolic rate, sGAG loss to culture medium and sGAG content of the explants were measured.
The metabolic rate of cartilage explants was measured using the Alamar Blue assay (ThermoFisher). Cartilage explants were incubated for 3 hours in a 1× solution of Alamar Blue dissolved in culture medium. At the end of the incubation period, the absorbance of the medium at 570 nm and 600 nm was measured using a microplate reader (Synergy H1 Hybrid Multi-Mode Microplate Reader, BioTek). These readings were used to calculate the percentage reduction of Alamar Blue, which is directly proportional to the explant metabolic rate. These values were first normalized by individual explant weights. Following this, the weight-normalized readings for the treatment groups were normalized by the weight-normalized mean value for the untreated controls. To measure the chondrocyte biosynthesis rate of sulfated glycosaminoglycans (sGAGs), cartilage explants were cultured in the presence of 10 μCi/mL 35S-sulfate radiolabel during the final two days of each experiment. […] To calculate the cumulative loss of GAGs from the explants, the amount of sGAG lost to the medium and that left behind in the explants at the end of the experiment were measured using the dimethylene blue (DMMB) dye binding assay (Farndale et al., Biochim Biophys Acta. 883(2):173-177 (1986)).

[2] = system: human ankle cartilage explants; assay: Cumulative sGAG loss and final explant sGAG content (DMMB), human ankle cartilage dose response; type: cell-based; conditions: continuous free IGF-1; any of the three time points
Experimental: Since each fusion protein had one IGF-1 domain, equivalent doses (39.2 nM) of these were tested. In addition to this, 500 nM, 1 μM and 2 μM doses of fusion proteins were also tested. In all cases, only a single dose of the fusion proteins was added at the start of the experiment, and media changes were carried out without fusion proteins once every 2 to 3 days thereafter. In contrast, continuous doses of free IGF-1 were used for the positive control. An untreated control group was also included in the experiments. Experiments were terminated at 3-day, 7-day and 15-day time points. Outcome measures included the biosynthesis rate of sulfated glycosaminoglycans (sGAG), explant metabolic rate, sGAG loss to the culture medium and the explant sGAG content at the end of the experiment.
The metabolic rate of cartilage explants was measured using the Alamar Blue assay (ThermoFisher). […] At the end of the incubation period, the absorbance of the medium at 570 nm and 600 nm was measured using a microplate reader (Synergy H1 Hybrid Multi-Mode Microplate Reader, BioTek). These readings were used to calculate the percentage reduction of Alamar Blue, which is directly proportional to the explant metabolic rate. […] Following this, the weight-normalized readings for the treatment groups were normalized by the weight-normalized mean value for the untreated controls. […]

(+9GFP)-(EAAAK)3-(IGF-1): fusion protein of +9 GFP and human IGF-1 with rigid (EAAAK)3 linker, SEQ ID NO: 8
cumulative sGAG loss compared to the untreated control ([1]; single 2 μM dose): higher cumulative sGAG loss

(+9GFP)-(GGGGS)4-(IGF-1): fusion protein of +9 GFP and human IGF-1 with flexible (GGGGS)4 linker, SEQ ID NO: 7
cumulative sGAG loss compared to the untreated control ([1]; single 500 nM dose): higher cumulative sGAG loss

IGF-1: free recombinant human IGF-1 (PeproTech), pro-anabolic growth factor used as the positive control
final explant GAG content or cumulative GAG loss percent compared to the untreated control [2]: did not have any change | cumulative sGAG loss to the medium compared to the untreated control ([1]; 7-day time point (FIG. 15C)): higher cumulative sGAG loss
